Measured values from US11325920B2, “Antibacterial compounds, compositions thereof, and methods using same” (The Rockefeller University, priority 2018, dated 2022).
Converted amounts (≈) assume the structure as drawn. Like-named read-outs stand apart in the source and are kept apart here.

Experiments:
[1] = system: Salmonella enterica IR715; experiment: MIC assay, Salmonella enterica IR715
Method: (§1) Minimum Inhibitory Concentration (MIC) and Minimal Bactericidal Concentration (MBC) Assays. […] Specifically, overnight cultures in an appropriate broth (e.g., Luria Bertani, Mueller-Hinton II) were diluted to 5×10^5 cfu/mL and used to fill wells of a 96-well plate. […] The plates were incubated on a shaker (200 rpm) at 35-37° C. for 18-20 hours, and then the optical density was measured at 595 nm on a microplate reader. Samples of each well without visible growth were diluted and spread on LB agar petri dishes. The petri dishes were incubated overnight at 37° C., and the colonies were counted.

[2] = system: Staphylococcus aureus USA800; experiment: MIC assay, S. aureus USA800
Method: (§2) Minimum Inhibitory Concentration (MIC) and Minimal Bactericidal Concentration (MBC) Assays. […] Specifically, overnight cultures in an appropriate broth (e.g., Luria Bertani, Mueller-Hinton II) were diluted to 5×10^5 cfu/mL and used to fill wells of a 96-well plate. […] The plates were incubated on a shaker (200 rpm) at 35-37° C. for 18-20 hours, and then the optical density was measured at 595 nm on a microplate reader.

[3] = system: Staphylococcus aureus NCTC 8325 pT181; experiment: MIC assay, S. aureus NCTC 8325 pT181
Method: as §2

[4] = system: Acinetobacter baumannii ATCC17978; experiment: MIC assay, Acinetobacter baumannii ATCC17978
Method: as §1

[5] = system: Listeria monocytogenes ATCC15313; experiment: MIC assay, Listeria monocytogenes ATCC15313
Method: as §2

[6] = system: Staphylococcus aureus ATCC BAA-42; experiment: MIC assay, S. aureus ATCC BAA-42
Method: as §2

[7] = system: Pseudomonas aeruginosa PAO1; experiment: MIC assay, Pseudomonas aeruginosa PAO1
Method: as §2

[8] = system: Enterococcus faecium Com15; experiment: MIC assay, Enterococcus faecium Com15
Method: as §2

[9] = system: M. tuberculosis H37Rv; experiment: Antibiotic assay against Mycobacterium tuberculosis (IC90); assay type: cell-based; details: for MIC: read-out: IC90 (footnote a; column head MIC)
[10] = system: Proteus mirabilis ATCC29906; experiment: MIC assay, Proteus mirabilis ATCC29906
Method: as §1

[11] = system: Staphylococcus aureus ATCC12600; experiment: MIC assay, wild type S. aureus ATCC 12600; assay type: cell-based
[12] = system: Staphylococcus aureus ATCC BAA-1721; experiment: MIC assay, S. aureus ATCC BAA-1721
Method: as §2

[13] = system: Staphylococcus epidermidis RP62A; experiment: MIC assay, Staphylococcus epidermidis RP62A
Method: as §2

[14] = system: Staphylococcus aureus USA200; experiment: MIC assay, S. aureus USA200
Method: as §2

[15] = system: Staphylococcus aureus USA100; experiment: MIC assay, S. aureus USA100
Method: as §2

[16] = system: rifamycin resistant S. aureus strains carrying RNAP mutations; experiment: Activity against rifamycin resistant S. aureus strains carrying RNAP mutations; details: FIG. 6D
[17] = system: S. aureus ATCC 12600 D471Y mutant strain; experiment: microbe, parasite or virus in culture; details: Staphylococcus aureus, ATCC12600
[18] = system: S. aureus ATCC 12600 D471Y mutant strain
[19] = target: T1, S447L mutant DNA-dependent RNA polymerase from Mycobacterium smegmatis (Mycolicibacterium smegmatis, UniProt P60281, S447L); assay type: biochemical; details: S447L M. smegmatis RNAP mutant
T1 construct: made in house

[20] = Mycobacterium tuberculosis H37Rv, Table 5
[21] = Staphylococcus aureus, NCTC8325
[22] = Staphylococcus aureus, ATCCBAA42
[23] = Mycobacterium tuberculosis, H37RV
[24] = Staphylococcus aureus, ATCCBAA1721

| Structure (SMILES) | MIC [1] [µg/mL] | MIC [2] [µg/mL] | MIC [4] [µg/mL] | MIC [5] [µg/mL] | MIC [7] [µg/mL] | MIC [10] [µg/mL] | MIC [11] [µg/mL] | MIC [13] [µg/mL] | MIC [14] [µg/mL] | MIC [15] [µg/mL] | MIC [3, 21] [µg/mL] | activity against rifamycin resistant S. aureus strains [16] | MIC [6, 22] [µg/mL] | MIC ([8]; Enterococcus faecium, COM15) [µg/mL] | MIC [9, 20] [µg/mL] | IC90 [9, 23] [µM] | MIC [17] [µg/mL] | MIC [12, 24] [µg/mL] | other results |
| --- | --- | --- | --- | --- | --- | --- | --- | --- | --- | --- | --- | --- | --- | --- | --- | --- | --- | --- | --- |
| CC(=O)O[C@@H]1[C@@H](C)[C@@H](O)[C@@H](C)[C@@H](O)[C@@H]([C@@H](C)OC(=O)C(C)(C)CC(=O)O)/C=C/C=C(\C)C(=O)NC2=CC(=O)c3c(c(O)c(C)c4c3C(=O)[C@](C)(O/C=C/[C@H](O[C@@H]3C[C@@H]5OCO[C@@H]5[C@H](C)O3)[C@H]1C)O4)C2=O [Kang A, kanglemycin A, reference compound] | >64 | 0.5 (≈ 0.509 µM) | >64 | 2.0 (≈ 2.04 µM) | 64 (≈ 65.2 µM) | >64 | 0.62 (≈ 0.631 µM) | 0.25 (≈ 0.255 µM) | 2.0 (≈ 2.04 µM) | 1.0 (≈ 1.02 µM) |  |  |  |  |  |  |  |  | MIC ([3]; Staphylococcus aureus NCTC 8325 pT181): 0.25 µg/mL (≈ 0.255 µM); MIC ([6]; Staphylococcus aureus ATCC BAA-42): 1.0 µg/mL (≈ 1.02 µM); MIC ([8]; Enterococcus faecium Com15): 64 µg/mL (≈ 65.2 µM); IC90 ([9]; M. tuberculosis H37Rv, read-out: IC90): 12.5 µM; IC90 (footnote a; column head MIC) [9, 20]: 13 µg/mL (≈ 13.2 µM); MIC ([12]; Staphylococcus aureus ATCC BAA-1721): 2.0 µg/mL (≈ 2.04 µM) |
| CC(=O)OC1C(C)C(OC2CC3OCOC3C(C)O2)/C=C/OC2(C)CC(O)c3c(c(C)c(O)c4c3C(=O)C=C(NC(=O)/C(C)=C\C=C\C(C(C)OC(=O)C(C)(C)CC(=O)O)C(O)C(C)C(O)C1C)C4=O)O2 (stereo not drawn) [Kang V1, kanglemycin V1] | > 64 | 0.063 (≈ 0.0631 µM) | > 64 | 1 (≈ 1 µM) | 64 (≈ 64.1 µM) | > 64 | 0.069 (≈ 0.0691 µM) | 0.031 (≈ 0.0311 µM) | 0.25 (≈ 0.25 µM) | 0.13 (≈ 0.13 µM) | 0.063 (≈ 0.0631 µM) | active | 0.13 (≈ 0.13 µM) | 32 (≈ 32.1 µM) | 3.1 (≈ 3.11 µM) | 3.12 | 0.069 (≈ 0.0691 µM) | 0.063 (≈ 0.0631 µM) | fold lower MIC than rifampicin [18]: ~80 fold |
| CC(=O)OC1C(C)C(OC2CC3OCOC3C(C)O2)/C=C/OC2(C)OC3=C(C)C(=O)c4c(O)c(cc5c4C3=C2OCO5)NC(=O)/C(C)=C\C=C\C(C(C)OC(=O)C(C)(C)CC(=O)O)C(O)C(C)C(O)C1C (stereo not drawn) [Kang V2, kanglemycin V2] | > 64 | 1 (≈ 1 µM) | > 64 | 1 (≈ 1 µM) | 64 (≈ 64.3 µM) | > 64 | 0.62 (≈ 0.622 µM) | 0.25 (≈ 0.251 µM) | 2 (≈ 2.01 µM) | 1 (≈ 1 µM) | 0.25 (≈ 0.251 µM) | active | 1 (≈ 1 µM) | 64 (≈ 64.3 µM) | 1.6 (≈ 1.61 µM) | 1.56 |  | 0.25 (≈ 0.251 µM) | in vitro activity against RNAP (run-off transcription) [19]: highest potency |
| CO[C@H]1/C=C/O[C@@]2(C)Oc3c(C)c(O)c4c(O)c(c(/C=N/N5CCN(C)CC5)c(O)c4c3C2=O)NC(=O)/C(C)=C\C=C\[C@H](C)[C@H](O)[C@@H](C)[C@@H](O)[C@@H](C)[C@H](OC(C)=O)[C@@H]1C [Rifampicin, rifampicin, reference compound] |  | 0.016 (≈ 0.0194 µM) |  | 0.031 (≈ 0.0377 µM) | 32 (≈ 38.9 µM) |  |  | 0.016 (≈ 0.0194 µM) | 0.0078 (≈ 0.00948 µM) | 0.0078 (≈ 0.00948 µM) | 0.031 (≈ 0.0377 µM) |  | 0.016 (≈ 0.0194 µM) | 4 (≈ 4.86 µM) | 0.2 (≈ 0.243 µM) |  | 5.6 (≈ 6.8 µM) | 0.0078 (≈ 0.00948 µM) | MIC ([11]; read-out: MIC): 0.023 µg/mL (≈ 0.0279 µM) |
